Laboratory results from PubChem BioAssay (NCI).
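1) Cells in 96-well plates. 2) Compound, 48 h, 5 concentrations. 3) Linear interpolation between surrounding doses. 4) Unreached endpoint = highest concentration. Here, GI50 denotes the concentration required for 50% inhibition of growth. TGI denotes the concentration required for complete inhibition of growth.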

Columns and labels:
Experiment in all cases: NCI-60 cell line screen, 48 h
[1] = test system: A549 NSCLC
[2] = test system: K-562 leukemia
[3] = test system: HL-60(TB) leukemia
[4] = test system: HT29 colon
[5] = test system: NCI-H460 lung
[6] = test system: HCT-15 colon
[7] = test system: IGROV1 ovarian
[8] = test system: HOP-92 NSCLC
[9] = test system: TK-10 renal
[10] = test system: NCI-H522 lung

Row | SMILES | TGI [1] | TGI [2] | TGI [3] | TGI [4] | TGI [5] | TGI [6] | TGI [7] | TGI [8] | GI50 [1] | GI50 [2] | GI50 [3] | GI50 [9] | TGI [9] | GI50 [4] | GI50 [5] | GI50 [6] | GI50 [10] | TGI [10] | GI50 [7] | GI50 [8]
1 | COc1ccc(OCC(C)(C)O)cc1 | > 100 µM | > 100 µM | > 100 µM | > 100 µM | > 100 µM | > 100 µM | > 100 µM | > 100 µM |  |  |  |  |  |  |  |  |  |  |  | 
2 | CCCCCCCCCC[N+](C)(C)C | 8.43 µM | 7.82 µM | 2.59 µM | 2.17 µM | 3.84 µM | 17.1 µM | 3.2 µM | 4.6 µM | 2.52 µM | 1.82 µM | 0.874 µM | 1.42 µM | 3.27 µM | 0.505 µM | 1.73 µM | 2.49 µM | 1.7 µM | 5.11 µM | 1.66 µM | 0.677 µM
3 | COc1ccc2c(c1)c(=O)c1c(NCCCN(C)C)ccc3ncn2c31 | 14.5 µM | > 56.1 µM | 25.1 µM | 8.21 µM | 8.03 µM | 14.7 µM | 21.2 µM | 19.5 µM |  |  |  |  | 20.1 µM |  |  |  |  | 21.4 µM |  | 
4 | CSS(C)(=O)=O | > 100 µM | 78.6 µM | 58.7 µM | > 100 µM | > 100 µM | 58.8 µM | 45.2 µM |  |  |  |  |  | 46 µM |  |  |  |  | 37.1 µM |  | 
5 | CCOC(=O)/C=C/c1c[nH]c(=O)[nH]c1=O | > 75 µM | > 75 µM | > 75 µM | > 75 µM | > 75 µM | > 75 µM | > 75 µM | > 75 µM |  |  |  |  |  |  |  |  |  | > 75 µM |  | 
6 | c1ccc(N2N=C3N(c4ccccc4)C2N3c2ccccc2)cc1 | > 100 µM | 59.5 µM | > 100 µM | > 100 µM | > 100 µM | > 100 µM | > 100 µM | 60.8 µM |  |  |  |  | > 100 µM |  |  |  |  | 56.1 µM |  | 
7 | COc1ccc(-c2c3c(nc4[nH]c(=S)[nH]c(=S)c24)CCCC3)cc1OC | 59 µM | > 100 µM | > 100 µM | > 100 µM | 42.9 µM | > 100 µM | 76.2 µM |  |  |  |  |  | > 100 µM |  |  |  |  |  |  | 
8 | CCOC(=O)C1=C(C)N(C2OC(COC(C)=O)C(OC(C)=O)C(OC(C)=O)C2OC(C)=O)C(=O)NC1c1ccccc1 (stereo not given) | > 100 µM | > 100 µM | > 100 µM | > 100 µM | > 100 µM | > 100 µM | > 100 µM |  |  |  |  |  |  |  |  |  |  | 63.4 µM |  | 
9 | CC(c1ccccc1)C(O)S(=O)(=O)O (stereo not given) | > 100 µM |  |  | > 100 µM | > 100 µM | > 100 µM | > 100 µM | > 100 µM |  |  |  |  | > 100 µM |  |  |  |  | > 100 µM |  | 
10 | CCCCn1c(C)c2c(c1C)C(=O)N(CCN1CCN(c3ccccc3Cl)CC1)C2=O | > 100 µM | 92.1 µM | 51 µM | 31 µM | > 100 µM | > 100 µM | > 100 µM | 68.5 µM |  |  |  |  | > 100 µM |  |  |  |  | 78.7 µM |  | 
